IC50 data for 45 molecules are collected here from US20260015352A1, “METHYLTRANSFERASE INHIBITOR AND USE THEREOF” (CYTOSINLAB THERAPEUTICS CO., LTD., priority 2022, published 2026).

Where only a bound is given, the exact number is not on record here.

In this experiment the test system is G401 cells. The experiment can be described thus: G401 ELISA test. To be noted: Homo sapiens, G-401; G401 cells treated with compounds for 72 hours; ELISA detecting K27 and H3; read-out: G401_ELISA IC50. The format is cell-based. As to the method: • Plate Reader: Envision (Perkinelmner); plate shaker: IKA MTS 2/4; plate Washer: BioTek microplate wisher 405 select; Cell counter: Counterstar (Ruiyu-biotech); Cell culture incubator: MCO-15AC (ThermoFisher); Pipette: BioHit Multichannel. Pipette: 0.2-10 μL, 10-300 μL, 50-1200 μL; Centrifuge: Thermo Centrifuge ST 40R; Pure water system: Millipore Milli-Q Reference system; Refrigerator: Haier −80 degree, −20 degree, and 4-degree refrigerators; cell cryopreservation box: Mr. Frosty™ Gradient Cooling Box Cat #5100-0001
• McCoys 5A (Modified) culture medium (ATCC); FBS (Gibco); 0.25% Trypsin/EDTA (Gibco); PBS (Hyclone); Penicillin/Streptomycin(100×) (Gibco); DMSO (Sigma); 384 cell culture plate (Corning); 384 detection plate (Greiner); 96 well plate (compound dilution) (Haimen, Qunchao); T75 Cell Culture Bottle (Corning)
G401 cells were seeded in a 384-well cell culture plate and incubated overnight at 37° C. in a 5% CO2 cell culture incubator, after which the cells were treated with compounds of different concentrations for 72 hours. The 384-well cell culture plate was taken out and upside down in a centrifuge to centrifugeat 300 rpm for 1 minute. After centrifugation, the 384-well cell culture plate was washed twice with PBS, added with lysis solution and lysed for 60 minutes. Then neutralization buffer was added for mixing and incubation was continued for 30 minutes. 20 ul (for detecting K27) and 10 ul (for detecting H3) of cell lysate were extracted from the 384-well cell culture plate and transferred to a 384 ELISA detection plate and incubate overnight at 4° C. The next day, the 384 ELISA plate was taken out and washed 5 times with TBST in a microplate washer. Then, the plate was added with a blocking solution and sealed at room temperature for 1 hour. The blocking solution was discarded and the primary antibody was added and then the plate was incubated at room temperature for 1 hour. After incubation, the plate was washed with TBST 5 times in a microplate washer, then added with secondary antibody and incubated at room temperature for 1 hour. After incubation, the plate was washed with TBST 5 times in a microplate washer, and finally added with color developer for color development. The plate was read with Envision plate reader. The obtained data was converted into inhibition rate using the following calculation method: % Inhibition rate=100−100*(compound absorbance−positive control absorbance)/(negative control absorbance−positive control absorbance), and then the inhibition rate data was subjected to curve fitting using the “logarithmic (inhibitor) and reaction-variable slope (four parameters)” model in GraphPad Prism 5 software.
The inhibition rate of the compound was calculated as follows: […]
The compounds of the present invention were tested according to the above experimental method, and some results were shown in Table 3. The test results were classified by A, B, and C, wherein A represents IC50≤0.1 uM; B represents 0.1 uM<IC50≤1 uM; C represents IC50>1 uM
For `COc1nccc2ccc(Nc3ccc(C(C)Nc4ncc(CC(=O)NC5COC5)cn4)cc3)nc12` (racemic) [PA039, 2-(2-((1-(4-((8-methoxy-1,7-naphthyridin-2-yl)amino)phenyl)ethyl)amino)pyrimidin-5-yl) acetic acid N-(oxetan-3-yl) acetamide], the IC50 lay within 100 to 1000 nM.

`COc1nccc2ccc(Nc3ccc(CNc4ncc(C(C)C(=O)NC5COC5)cn4)cc3)nc12` (racemic) [PA041, 2-[2-[[4-[(8-methoxy-1,7-naphthyridin-2-yl)amino]phenyl]methylamino]pyrimidin-5-yl]-N-(oxetan-3-yl) propanamide]: the IC50 is not above 100 nM.

Consider `COc1nccc2ccc(Nc3ccc(CNc4ncc([C@H](C)C(=O)NC5COC5)cn4)cc3)nc12` (single isomer, unassigned) [PA042, 2-[2-[[4-[(8-methoxy-1,7-naphthyridin-2-yl)amino]phenyl]methylamino]pyrimidin-5-yl]-N-(oxetan-3-yl) propanamide], for which the IC50 was not above 100 nM.

Regarding `COc1nccc2ccc(Nc3ccc(CNc4ncc([C@@H](C)C(=O)NC5COC5)cn4)cc3)nc12` (single isomer, unassigned) [PA043, 2-[2-[[4-[(8-methoxy-1,7-naphthyridin-2-yl)amino]phenyl]methylamino]pyrimidin-5-yl]-N-(oxetan-3-yl) propanamide], the IC50 lay within 100 to 1000 nM.

Turning to `COc1nccc2ccc(Nc3ccc([C@@H](C)Nc4ncc(CC(=O)NC5COC5)cn4)cc3)nc12` (single isomer, unassigned) [PA062, 2-(2-((1-(4-((8-methoxy-1,7-naphthyridin-2-yl)amino)phenyl)ethyl)amino)pyrimidin-5-yl) acetic acid N-(oxetan-3-yl) acetamide], the half-maximal inhibitory concentration (IC50) lay within 100 to 1000 nM.

With `CC(C(=O)NC1COC1)c1cnc(N[C@@H](C)C23CCC(Nc4ccc5ccnc(Cl)c5n4)(CC2)CC3)nc1` (single isomer, unassigned) [PA166], the IC50 is not above 100 nM.

As to `C[C@H](Nc1ncc(CNC2CS(=O)(=O)C2)cn1)c1ccc(Nc2ccc3ccnc(Cl)c3n2)c(F)c1` (single isomer, unassigned) [PA248], the IC50 was more than 1000 nM.

As to `COc1nccc2ccc(Nc3ccc(CNc4ncc(CC(=O)NC5COC5)cn4)cc3)nc12` [PA001], the IC50 was not above 100 nM.

In the case of `COc1nccc2ccc(Nc3ccc(CNc4ncc(CC(=O)OC(C)(C)C)cn4)cc3)nc12` [PA007], the IC50 was more than 1000 nM.

On to `O=C(Cc1cnc(NCc2ccc(Nc3ccc4ccnc(Cl)c4n3)cc2)nc1)NC1COC1` [PA010], for which the IC50 lay within 100 to 1000 nM.

`COc1nccc2ccc(Nc3ccc(CNc4ncc(CC(=O)NC5COC5)cn4)c(F)c3)nc12` [PA034]: the IC50 is not above 100 nM.

In the case of `COc1nccc2ccc(Nc3ccc(CNc4cnc(C(C)(C)C(=O)NC5COC5)cn4)cc3)nc12` [PA038], the 50% inhibitory concentration (IC50) was more than 1000 nM.

In the case of `CC(C(=O)NC1COC1)c1cnc(NCc2ccc(Nc3ccc4ccnc(Cl)c4n3)cc2)nc1` (stereo not drawn) [PA044], the IC50 is 100 to 1000 nM.

`O=C(Cc1cnc(NCC23CCC(Nc4ccc5ccnc(Cl)c5n4)(CC2)CC3)nc1)NC1COC1` [PA046, 2-[2-[[4-[(8-chloro-1,7-naphthyridin-2-yl)amino]-1-bicyclo[2.2.2]octyl]methylamino]pyrimidin-5-yl]-N-(oxetan-3-yl)acetamide]: the IC50 is not above 100 nM.

Consider `O=C(Cc1cnc(NCc2ccc(Nc3ccc4ccncc4n3)cc2)nc1)NC1COC1` [PA048], for which the IC50 is more than 1000 nM.

On to `O=C(Cc1cnc(NCc2ccc(Nc3ccc4cccnc4n3)cc2)nc1)NC1COC1` [PA051], for which the concentration for half-maximal inhibition (IC50) was more than 1000 nM.

In the case of `C[C@H](C(=O)NC1COC1)c1cnc(NCc2ccc(Nc3ccc4ccnc(Cl)c4n3)cc2)nc1` [PA054], the IC50 fell in the range of 100 to 1000 nM.

Regarding `C[C@@H](C(=O)NC1COC1)c1cnc(NCc2ccc(Nc3ccc4ccnc(Cl)c4n3)cc2)nc1` [PA055], the IC50 is more than 1000 nM.

Consider `COc1nccc2ccc(Nc3ccc([C@H](C)Nc4ncc(CC(=O)NC5COC5)cn4)cc3)nc12` [PA061, 2-(2-((1-(4-((8-methoxy-1,7-naphthyridin-2-yl)amino)phenyl)ethyl)amino)pyrimidin-5-yl) acetic acid N-(oxetan-3-yl) acetamide], for which the IC50 is not above 100 nM.

Turning to `COc1nccc2ccc(Nc3ccc(CNc4ncc(CC(=O)NC5COC5)cn4)cc3)cc12` [PA066], the IC50 was more than 1000 nM.

For `CNc1nccc2ccc(Nc3ccc(CNc4ncc(CC(=O)NC5COC5)cn4)cc3)nc12` [PA068], the IC50 lay within 100 to 1000 nM.

Regarding `O=C(Cc1cnc(NCC23CC(Nc4ccc5ccnc(Cl)c5n4)(C2)C3)nc1)NC1COC1` [PA069], the IC50 is more than 1000 nM.

For the molecule `COc1nccc2ccc(Nc3ccc(CNc4ncc(CC(=O)NC5COC5)cn4)cn3)nc12` [PA070], the IC50 was more than 1000 nM.

Regarding `COc1ccc2ccc(Nc3ccc(CNc4ncc(CC(=O)NC5COC5)cn4)cc3)nc2n1` [PA073], the half-inhibitory concentration (IC50) is more than 1000 nM.

`N#Cc1nccc2ccc(Nc3ccc(CNc4ncc(CC(=O)NC5COC5)cn4)cc3)nc12` [PA074]: the IC50 is more than 1000 nM.

For the molecule `COc1nccc2ccc(NC34CCC(CNc5ncc(C(C)C(=O)NC6COC6)cn5)(CC3)CC4)nc12` (stereo not drawn) [PA076], the concentration for half-maximal inhibition (IC50) was not above 100 nM.

Consider `COc1nccc2ccc(NC34CCC(CNc5ncc([C@@H](C)C(=O)NC6COC6)cn5)(CC3)CC4)nc12` [PA077], for which the IC50 is not above 100 nM.

Regarding `COc1nccc2ccc(NC34CCC(CNc5ncc([C@H](C)C(=O)NC6COC6)cn5)(CC3)CC4)nc12` [PA078], the IC50 was in the range of 100 to 1000 nM.

In the case of `COc1nccc2ccc(NC34CCC(CNc5ncc(CC(=O)NC6COC6)cn5)(CC3)CC4)nc12` [PA079], the half-inhibitory concentration (IC50) was not above 100 nM.

`COc1nccc2ccc(Nc3ccc(CNc4ccc(CC(=O)NC5COC5)cc4)cc3)nc12` [PA081]: the IC50 was 100 to 1000 nM.

`COc1nccc2ccc(Nc3ccc(CNc4ccc(CC(=O)NC5COC5)nc4)cc3)nc12` [PA082]: the IC50 is more than 1000 nM.

Take `COc1nccc2ccc(Nc3ccc(CNc4ncc(CC(=O)NCCO)cn4)cc3)nc12` [PA151]: the IC50 was more than 1000 nM.

For the molecule `COCCNC(=O)Cc1cnc(NCc2ccc(Nc3ccc4ccnc(OC)c4n3)cc2)nc1` [PA152], the IC50 fell in the range of 100 to 1000 nM.

With `COc1nccc2ccc(Nc3ccc(CNc4ncc(CC(=O)NC5COC5)cn4)cc3F)nc12` [PA153], the IC50 was not above 100 nM.

Consider `COc1nccc2ccc(Nc3ccc(CNc4ncc(CNC5COC5)cn4)cc3)nc12` [PA154], for which the IC50 was in the range of 100 to 1000 nM.

`CNC(=O)C(NC1CS(=O)(=O)C1)c1cnc(N[C@@H](C)C23CCC(Nc4ccc5ccnc(Cl)c5n4)(CC2)CC3)nc1` (stereo partly drawn) [PA162]: the IC50 was not above 100 nM.

For `COc1nccc2ccc(Nc3ccc([C@H](C)Nc4ncc(C(C)NC5CS(=O)(=O)C5)cn4)cc3F)nc12` (stereo partly drawn) [PA163], the concentration for half-maximal inhibition (IC50) was not above 100 nM.

Consider `C[C@H](Nc1ncc(C=CC2CS(=O)(=O)C2)cn1)C12CCC(Nc3ccc4ccnc(Cl)c4n3)(CC1)CC2` [PA164], for which the IC50 is not above 100 nM.

In the case of `C[C@H](Nc1ncc(CNC2CS(=O)(=O)C2)cn1)C12CCC(Nc3ccc4ccnc(Cl)c4n3)(CC1)CC2` [PA165], the IC50 was not above 100 nM.

As for `Cc1ccc2ccc(Nc3ccc([C@H](C)Nc4ncc(CNC5CS(=O)(=O)C5)cn4)cc3F)nc2c1Cl` [PA167, (S)-3-(2-(1-(4-(8-chloro-7-methylquinolin-2-amino)-3-fluorophenyl)ethylamino)pyrimidin-5-ylmethylamino)thietan-1,1-dione], the IC50 was not above 100 nM.

On to `COc1nccc2ccc(NC34CCC([C@H](C)Nc5ncc(C(C)C(=O)NC6COC6)cn5)(CC3)CC4)nc12` (stereo partly drawn) [PA168], for which the IC50 is not above 100 nM.

As for `CC(C(=O)NC1COC1)c1cnc(N[C@@H](C)C23CCC(Nc4ccc5ccnc(Cl)c5n4)(CC2)CC3)nc1` (stereo partly drawn) [PA169, 2-(2-(((S)-1-(4-((8-chloro-1,7-naphthyridin-2-yl)amino)bicyclo[2.2.2]octan-1-yl)ethyl)amino)pyrimidin-5-yl)-N-(oxetan-3-yl)propanamide], the IC50 was not above 100 nM.

On to `C[C@H](Nc1ncc(CNCCC#N)cn1)C12CCC(Nc3ccc4ccnc(Cl)c4n3)(CC1)CC2` [PA170], for which the half-maximal inhibitory concentration (IC50) was not above 100 nM.

`CC(Nc1ncc(CC(=O)N(CCC#N)C2COC2)cn1)C12CCC(Nc3ccc4ccnc(Cl)c4n3)(CC1)CC2` (stereo not drawn) [PA171]: the IC50 was not above 100 nM.

In the case of `COc1nccc2ccc(Nc3ccc([C@H](C)Nc4ncc(CNC5CS(=O)(=O)C5)cn4)cc3F)nc12` [PA172], the IC50 is not above 100 nM.

As a reminder, the IC50 is the concentration that gives 50% inhibition.
